Experiments:
[1] = tested on: Pomc heterozygous knock-out mice; assay: Anti-obesity efficacy in high fat diet POMC heterozygous deficient mouse model; assay type: in vivo; details: 60 kcal % high-fat diet, 10 mg/kg or 30 mg/kg for about 3 weeks, FIG. 1
Experimental: Pomc heterozygous knock-out mice, in which the Pomc gene encoding proopiomelanocortin (POMC) is not normally expressed, were fed a 60 kcal % high-fat diet (diet with 60 kcal % fat), while administering N-((3S,5S)-1-((3S,4R)-1-(tert-butyl)-4-(4-chlorophenyl)pyrrolidine-3-carbonyl)-5-(morpholine-4-carbonyl)pyrrolidin-3-yl)-N-((1s,4R)-4-methylcyclohexyl)isobutyramide hydrochloride (hereinafter referred to as “test compound”) obtained from the example of preparation at a dose of 10 mg/kg or 30 mg/kg for about 3 weeks to determine the anti-obesity efficacy, and the results are shown in FIG. 1.

[2] = tested on: Pomc homozygous knock-out mice; assay: Anti-obesity efficacy in high fat diet POMC homozygous deficient mouse model; assay type: in vivo; details: 45 kcal % high-fat diet, 10 mg/kg or 30 mg/kg for about 10 days, FIG. 2
Experimental: Pomc homozygous knock-out mice, in which the Pomc gene encoding proopiomelanocortin (POMC) is not expressed, were administered with the test compound at a dose of 10 mg/kg or 30 mg/kg for about 10 days while fed a 45 kcal % high-fat diet (diet with 45 kcal % fat) to determine the anti-obesity efficacy, and the results are shown in FIG. 2.

`CC(C)C(=O)N([C@H]1C[C@@H](C(=O)N2CCOCC2)N(C(=O)[C@@H]2CN(C(C)(C)C)C[C@H]2c2ccc(Cl)cc2)C1)[C@H]1CC[C@@H](C)CC1.Cl` [test compound, N-((3S,5S)-1-((3S,4R)-1-(tert-butyl)-4-(4-chlorophenyl)pyrrolidine-3-carbonyl)-5-(morpholine-4-carbonyl)pyrrolidin-3-yl)-N-((1s,4R)-4-methylcyclohexyl)isobutyramide hydrochloride] was tested. Which anti-obesity efficacy [1] did it give?
Its anti-obesity efficacy is “excellent anti-obesity effects”.

And the anti-obesity efficacy [2]?
Its anti-obesity efficacy is “excellent anti-obesity effects”.
